Like-named read-outs stand apart in the source and are kept apart here.
Key:
[1] = Time lag between oral administration and maximal plasma levels, eletriptan in combination with sodium bicarbonate; type: in vivo; conditions: administered in combination with sodium bicarbonate, in some cases
Text: The advantage to the patient arising from the correspondingly swift amelioration of symptoms is self-evident.

[2] = Tablet hardness relative to tablets made from a placebo blend; type: physicochemical; conditions: eletriptan at 2.5% w/w of tablet
Procedure: A mixture of eletriptan hydrobromide (24.24 mg, equivalent to 20 mg of eletriptan free base), sodium bicarbonate (USP, 630 mg) and microcrystalline cellulose (Avicel PH 102, Ph. Eur., 137.76 mg) were blended for 10 minutes, passed through a […] screen and re-blended for a further 10 minutes. Screened intragranular magnesium stearate (Ph. Eur., 8 mg) was added and the mixture was lubricated for 5 minutes. […] The blend was made into a tablet by direct compression. The tablets so produced had excellent weight uniformity and friability.

[3] = α-polymorphic hydrobromide salt, oral, cited from earlier work
[4] = 30 mg eletriptan, fasted, cited from earlier work

SMILES: CN1CCC[C@@H]1Cc1c[nH]c2ccc(CCS(=O)(=O)c3ccccc3)cc12 [eletriptan, 3-{[1-methylpyrrolidin-2(R)-yl]methyl}-5-(2-phenylsulfonylethyl)-1H-indole]
- time lag between oral administration and maximal plasma levels of drug [1]: 30 min
- increase in tablet hardness [2]: 0.7 kp
- Tmax (time between administering a standard tablet and maximal plasma concentrations) ([3]; fasted subjects): about 1 hour
- Tmax (time between administering a standard tablet and maximal plasma concentrations) ([3]; fed subjects): up to 4 hours
- Tmax ([4]; migraine-free patients): 1.3 ± 1.3 h
- Tmax ([4]; patients with migraine): 2.8 ± 2.1 h

From US20040204475A1, “Pharmaceutical combination” (priority 2003, published 2004)
